{"source": "patent US7514592B2", "about": "“Inducible heart attack animal model” (Massachusetts Institute of Technology, priority 2004, dated 2009)", "origin": "cited, not measured here", "tested_on": "SR-BI knockout females", "conditions": "homozygous SR-BI knockout dams (infertile); administered during the breeding protocol", "data": [{"smiles": "CC(C)(Sc1cc(C(C)(C)C)c(O)c(C(C)(C)C)c1)Sc1cc(C(C)(C)C)c(O)c(C(C)(C)C)c1", "note": "[probucol]", "values": [{"measurement": "fertility in SR-BI knockout females", "value": "restore fertility"}]}]}
